In US8252047B2, “Drug-delivery endovascular stent and method for treating restenosis” (Biosensors International Group, Ltd., priority 2004, dated 2012):

Key:
[1] = tested on: restenosis in porcine coronary arteries; assay: swine restenosis animal model, stent implantation; assay type: in vivo; details: 28 days after implantation, platinum anchoring layer stent with vs without drug coating
Description: Briefly, studies conducted in support of the present invention compared the extent of restenosis at 28 days following stent implantation, in metal stents having an electroplated platinum anchoring layer, with or without a drug coating of Biolimus A-9.

[2] = in vitro drug elution in PBS from platinum-coated stent; assay type: physicochemical; details: 252 μg on platinum-plated anchoring layer stent, by day 34
Description: FIG. 7 is an elution profile in PBS of the drug Biolimus A-9 from the stent of the invention as measured by the total amount of drug released in μg over cumulative time in hours.
It will be appreciated that the actual rate of drug release in vivo will be much greater, e.g., the bulk of the drug released will be released within the first few days following implantation, due to the greater hydrophobicity of the cell-membrane environment in vivo. However, the in vitro release in a purely aqueous medium provides a useful standard for formulating the drug coating, to achieve an effective drug release rate in vivo and also to achieve, a desired drug-layer cohesiveness.

physchem = assay: physchem
Description: The coating may also include binders or small molecules designed to optimize the tissue solubility of the drug coating, to produce a desired cohesiveness in the drug coating, and a desired drug release rate in the implanted stent.

[3] = cited from earlier work

CCOCCO[C@@H]1CC[C@@H](C[C@@H](C)[C@@H]2CC(=O)[C@H](C)/C=C(\C)[C@@H](O)[C@@H](OC)C(=O)[C@H](C)C[C@H](C)/C=C/C=C/C=C(\C)[C@@H](OC)C[C@@H]3CC[C@@H](C)[C@@](O)(O3)C(=O)C(=O)N3CCCC[C@H]3C(=O)O2)C[C@H]1OC [Biolimus A-9]
extent of restenosis [1]: significantly reduced the extent of restenosis | fraction of drug eluted from the stent [2]: about one-third | log P (log partition coefficient between octanol and water) (physchem): 7.63

CO[C@H]1C[C@@H]2CC[C@@H](C)[C@@](O)(O2)C(=O)C(=O)N2CCCC[C@H]2C(=O)O[C@H]([C@H](C)C[C@@H]2CC[C@@H](OCCO)[C@H](OC)C2)CC(=O)[C@H](C)/C=C(\C)[C@@H](O)[C@@H](OC)C(=O)[C@H](C)C[C@H](C)/C=C/C=C/C=C/1C [everolimus]
log P (log partition coefficient between octanol and water) (physchem): 6.70

CC(=O)O[C@H]1C(=O)[C@@]2(C)[C@H]([C@H](OC(=O)c3ccccc3)[C@]3(O)C[C@H](OC(=O)[C@H](O)[C@@H](NC(=O)c4ccccc4)c4ccccc4)C(C)=C1C3(C)C)[C@]1(OC(C)=O)CO[C@@H]1C[C@@H]2O [paclitaxel]
chromatographic logP (physchem): 4.68

CCc1ccc(CCOc2ccc(CC3SC(=O)NC3=O)cc2)nc1 (stereo not drawn) [pioglitazone]
solubility in acetone ([3]; acetone): slightly soluble | solubility in ethanol ([3]; ethanol): slightly soluble | solubility in water ([3]; water): insoluble

CO[C@H]1C[C@@H]2CC[C@@H](C)[C@@](O)(O2)C(=O)C(=O)N2CCCC[C@H]2C(=O)O[C@H]([C@H](C)C[C@@H]2CC[C@@H](O)[C@H](OC)C2)CC(=O)[C@H](C)/C=C(\C)[C@@H](O)[C@@H](OC)C(=O)[C@H](C)C[C@H](C)/C=C/C=C/C=C/1C [rapamycin]
log P (log partition coefficient between octanol and water) (physchem; modified HPLC method (Lombardo et al.)): 6.51
